Data from ChEMBL document CHEMBL4373747 (ACS Med Chem Lett, 2020).

What was measured:
Histone deacetylase 3 = Histone deacetylase 3 (Homo sapiens, UniProt O15379); assay: Inhibition of recombinant full length human HDAC3 expressed in baculovirus infected Sf9 cells using FAM-RHKK-Ac as substrate incubated for 3 hrs by electrophoretic mobility shift assay
[1] = target: T1, Protein deacetylase HDAC6 (Homo sapiens, UniProt Q9UBN7); assay: Inhibition of recombinant full length human HDAC6 expressed in baculovirus infected Sf9 cells using FAM-RHKK-Ac as substrate incubated for 5 hrs by electrophoretic mobility shift assay
T1 sequence (Q9UBN7 whole entry): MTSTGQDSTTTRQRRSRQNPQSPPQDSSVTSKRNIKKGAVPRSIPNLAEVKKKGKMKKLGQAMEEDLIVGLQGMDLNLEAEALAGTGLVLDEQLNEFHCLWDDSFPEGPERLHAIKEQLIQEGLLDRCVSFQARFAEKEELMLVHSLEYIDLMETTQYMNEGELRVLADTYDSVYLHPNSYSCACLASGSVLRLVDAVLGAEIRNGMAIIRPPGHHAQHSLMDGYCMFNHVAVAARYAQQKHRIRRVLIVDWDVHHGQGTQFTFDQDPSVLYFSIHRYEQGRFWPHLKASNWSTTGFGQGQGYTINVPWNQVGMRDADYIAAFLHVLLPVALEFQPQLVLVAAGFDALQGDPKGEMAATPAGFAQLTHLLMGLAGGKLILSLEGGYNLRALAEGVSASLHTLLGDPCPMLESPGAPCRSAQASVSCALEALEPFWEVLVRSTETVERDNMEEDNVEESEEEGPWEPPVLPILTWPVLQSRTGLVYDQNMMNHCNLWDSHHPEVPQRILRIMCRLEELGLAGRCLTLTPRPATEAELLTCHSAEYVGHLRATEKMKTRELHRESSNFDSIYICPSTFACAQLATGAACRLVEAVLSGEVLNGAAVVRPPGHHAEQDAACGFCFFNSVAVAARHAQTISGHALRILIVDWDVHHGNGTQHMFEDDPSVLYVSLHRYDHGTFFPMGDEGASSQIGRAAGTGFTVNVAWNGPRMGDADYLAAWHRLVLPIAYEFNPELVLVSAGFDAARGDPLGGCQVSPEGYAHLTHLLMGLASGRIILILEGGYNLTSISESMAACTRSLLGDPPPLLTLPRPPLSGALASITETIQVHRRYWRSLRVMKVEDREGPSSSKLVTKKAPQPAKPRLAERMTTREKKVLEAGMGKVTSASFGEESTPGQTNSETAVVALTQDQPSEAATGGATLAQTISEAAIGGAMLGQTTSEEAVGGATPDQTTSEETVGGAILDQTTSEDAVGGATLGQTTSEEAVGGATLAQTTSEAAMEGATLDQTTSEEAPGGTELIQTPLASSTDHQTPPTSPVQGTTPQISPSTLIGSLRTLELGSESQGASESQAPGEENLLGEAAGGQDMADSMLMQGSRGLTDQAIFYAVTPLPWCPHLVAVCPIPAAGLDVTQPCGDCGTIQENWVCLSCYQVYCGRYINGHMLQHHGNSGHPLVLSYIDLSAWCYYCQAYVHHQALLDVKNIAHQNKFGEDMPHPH

Histone deacetylase 8 = target: T2, Histone deacetylase 8 (Homo sapiens, UniProt Q9BY41); assay: Inhibition of recombinant full length human HDAC8 expressed in baculovirus infected Sf9 cells using FAM-RHKK-TFAc as substrate incubated for 3 hrs by electrophoretic mobility shift assay
T2 sequence (Q9BY41 whole entry): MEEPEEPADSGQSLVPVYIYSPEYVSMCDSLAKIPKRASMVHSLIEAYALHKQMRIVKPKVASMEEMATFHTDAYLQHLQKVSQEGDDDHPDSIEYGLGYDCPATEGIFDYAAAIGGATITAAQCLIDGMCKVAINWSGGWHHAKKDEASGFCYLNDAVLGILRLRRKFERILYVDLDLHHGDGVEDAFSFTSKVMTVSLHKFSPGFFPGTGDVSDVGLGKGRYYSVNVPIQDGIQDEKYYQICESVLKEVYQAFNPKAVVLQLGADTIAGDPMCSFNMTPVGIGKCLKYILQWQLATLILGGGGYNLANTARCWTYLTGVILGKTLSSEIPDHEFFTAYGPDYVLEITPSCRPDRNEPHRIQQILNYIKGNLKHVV

Histone deacetylase 11 = target: T3, Histone deacetylase 11 (Homo sapiens, UniProt Q96DB2); assay: Inhibition of recombinant full length human HDAC11 expressed in baculovirus infected Sf9 cells using FAM-RHKK-TFAc as substrate incubated for 17 hrs by electrophoretic mobility shift assay
T3 sequence (Q96DB2 whole entry): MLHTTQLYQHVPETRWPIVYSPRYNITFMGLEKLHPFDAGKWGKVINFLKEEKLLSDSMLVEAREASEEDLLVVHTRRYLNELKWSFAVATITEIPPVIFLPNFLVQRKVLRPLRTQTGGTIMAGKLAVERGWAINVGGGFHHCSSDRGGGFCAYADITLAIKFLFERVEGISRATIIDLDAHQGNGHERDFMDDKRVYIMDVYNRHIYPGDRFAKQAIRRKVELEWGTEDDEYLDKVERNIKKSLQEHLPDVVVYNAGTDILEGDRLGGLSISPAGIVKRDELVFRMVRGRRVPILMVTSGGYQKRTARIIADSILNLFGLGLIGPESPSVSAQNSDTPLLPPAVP

[2] = target: T1, Protein deacetylase HDAC6; assay: Inhibition of recombinant full length human HDAC6 expressed in baculovirus infected Sf9 cells assessed as inhibitory constant using FAM-RHKK-Ac as substrate incubated for 5 hrs by electrophoretic mobility shift assay
MV4-11 = assay: Cytotoxicity against human MV4-11 cells assessed as reduction in cell viability incubated for 72 hrs by cell-titer blue assay; assay type: functional, cell-based; details: MV4-11, 72 h
MOLM-13 = assay: Cytotoxicity against human MOLM13 cells assessed as reduction in cell viability incubated for 72 hrs by cell-titer blue assay; assay type: functional, cell-based; details: MOLM-13, 72 h
MDA-MB-231 = assay: Cytotoxicity against human MDA-MB-231 cells assessed as reduction in cell viability incubated for 72 hrs by cell-titer blue assay; assay type: functional, cell-based; details: MDA-MB-231, 72 h
MDA-MB-468 = assay: Cytotoxicity against human MDA-MB-468 cells assessed as reduction in cell viability incubated for 72 hrs by cell-titer blue assay; assay type: functional, cell-based; details: MDA-MB-468, 72 h
[3] = Cytotoxicity against human MRC9 cells assessed as reduction in cell viability incubated for 72 hrs by cell-titer blue assay; assay type: cell-based; details: MRC9, 72 h
[4] = Efflux ratio of apparent permeability in human Caco2 cells incubated for 2 hrs by LC/MS analysis; assay type: ADME, cell-based, Caco-2; details: Caco-2
Histone deacetylase 5 = Histone deacetylase 5 (Homo sapiens, UniProt Q9UQL6); assay: Inhibition of recombinant full length human HDAC5 expressed in baculovirus infected Sf9 cells using FAM-RHKK-TFAc as substrate incubated for 3 hrs by electrophoretic mobility shift assay
Histone deacetylase 9 = Histone deacetylase 9 (Homo sapiens, UniProt Q9UKV0); assay: Inhibition of recombinant human HDAC9 (604-1066 residues) expressed in baculovirus infected Sf9 cells using FAM-RHKK-TFAc as substrate incubated for 3 hrs by electrophoretic mobility shift assay
[5] = target: T4, Polyamine deacetylase HDAC10 (Homo sapiens, UniProt Q969S8); assay: Inhibition of recombinant full length human HDAC10 expressed in baculovirus infected Sf9 cells using FAM-RHKK-Ac as substrate incubated for 17 hrs by electrophoretic mobility shift assay
T4 sequence (Q969S8 whole entry): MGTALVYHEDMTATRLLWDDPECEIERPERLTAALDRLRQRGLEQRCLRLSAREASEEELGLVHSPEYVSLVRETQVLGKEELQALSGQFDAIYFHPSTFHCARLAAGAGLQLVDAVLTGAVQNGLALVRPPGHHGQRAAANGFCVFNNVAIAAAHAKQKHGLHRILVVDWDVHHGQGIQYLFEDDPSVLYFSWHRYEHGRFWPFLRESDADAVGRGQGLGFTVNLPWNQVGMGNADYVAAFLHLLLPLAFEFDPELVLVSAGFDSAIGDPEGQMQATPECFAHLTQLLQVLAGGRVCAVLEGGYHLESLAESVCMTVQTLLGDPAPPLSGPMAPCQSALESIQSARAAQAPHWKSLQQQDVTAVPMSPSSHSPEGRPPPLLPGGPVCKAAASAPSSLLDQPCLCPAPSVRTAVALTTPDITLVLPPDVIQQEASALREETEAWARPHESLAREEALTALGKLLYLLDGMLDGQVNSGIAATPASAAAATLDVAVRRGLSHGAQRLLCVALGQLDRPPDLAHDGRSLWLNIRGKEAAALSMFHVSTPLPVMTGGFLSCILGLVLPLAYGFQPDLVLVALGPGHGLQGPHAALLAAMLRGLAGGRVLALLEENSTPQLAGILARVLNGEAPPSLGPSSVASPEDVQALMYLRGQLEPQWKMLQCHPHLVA

Sequence of Histone deacetylase 3 (O15379 whole entry): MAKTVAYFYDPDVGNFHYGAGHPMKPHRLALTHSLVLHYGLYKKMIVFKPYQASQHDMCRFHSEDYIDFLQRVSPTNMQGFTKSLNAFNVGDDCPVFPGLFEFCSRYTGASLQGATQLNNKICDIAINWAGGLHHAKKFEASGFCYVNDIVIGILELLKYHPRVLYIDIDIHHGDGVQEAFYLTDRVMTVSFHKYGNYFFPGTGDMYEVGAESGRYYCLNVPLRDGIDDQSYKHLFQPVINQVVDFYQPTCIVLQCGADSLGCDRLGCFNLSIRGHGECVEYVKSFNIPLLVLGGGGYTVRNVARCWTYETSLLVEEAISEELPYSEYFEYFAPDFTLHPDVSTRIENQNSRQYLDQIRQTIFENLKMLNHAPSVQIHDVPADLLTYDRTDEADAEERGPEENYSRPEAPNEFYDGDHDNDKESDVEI
Sequence of Histone deacetylase 9 (Q9UKV0 whole entry, the tested form may be a part): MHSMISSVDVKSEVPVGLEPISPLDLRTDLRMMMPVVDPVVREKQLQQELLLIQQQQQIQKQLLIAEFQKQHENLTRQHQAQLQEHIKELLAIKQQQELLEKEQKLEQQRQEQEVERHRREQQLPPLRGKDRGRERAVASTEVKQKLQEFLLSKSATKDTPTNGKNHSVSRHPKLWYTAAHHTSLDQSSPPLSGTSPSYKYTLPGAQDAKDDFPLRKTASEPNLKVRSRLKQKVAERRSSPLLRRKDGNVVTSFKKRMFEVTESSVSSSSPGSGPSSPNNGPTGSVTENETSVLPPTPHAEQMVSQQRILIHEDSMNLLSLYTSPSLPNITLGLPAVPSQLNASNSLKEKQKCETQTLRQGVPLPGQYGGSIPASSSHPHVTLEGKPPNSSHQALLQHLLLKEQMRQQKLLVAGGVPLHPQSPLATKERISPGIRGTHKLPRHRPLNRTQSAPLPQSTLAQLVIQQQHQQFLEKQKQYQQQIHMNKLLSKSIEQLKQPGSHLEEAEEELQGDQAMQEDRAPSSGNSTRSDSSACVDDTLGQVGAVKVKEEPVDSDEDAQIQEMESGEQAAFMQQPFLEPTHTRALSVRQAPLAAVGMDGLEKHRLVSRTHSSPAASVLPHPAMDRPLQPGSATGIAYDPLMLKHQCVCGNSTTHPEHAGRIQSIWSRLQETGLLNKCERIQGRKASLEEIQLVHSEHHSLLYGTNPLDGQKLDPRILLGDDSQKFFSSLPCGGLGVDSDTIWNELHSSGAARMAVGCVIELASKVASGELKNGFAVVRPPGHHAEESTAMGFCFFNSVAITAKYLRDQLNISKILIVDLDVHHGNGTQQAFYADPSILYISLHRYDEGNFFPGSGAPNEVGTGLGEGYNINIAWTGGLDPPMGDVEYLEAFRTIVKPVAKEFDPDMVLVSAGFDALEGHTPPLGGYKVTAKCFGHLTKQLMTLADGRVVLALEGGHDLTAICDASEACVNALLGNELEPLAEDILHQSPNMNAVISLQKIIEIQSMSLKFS
Sequence of Histone deacetylase 5 (Q9UQL6 whole entry, the tested form may be a part): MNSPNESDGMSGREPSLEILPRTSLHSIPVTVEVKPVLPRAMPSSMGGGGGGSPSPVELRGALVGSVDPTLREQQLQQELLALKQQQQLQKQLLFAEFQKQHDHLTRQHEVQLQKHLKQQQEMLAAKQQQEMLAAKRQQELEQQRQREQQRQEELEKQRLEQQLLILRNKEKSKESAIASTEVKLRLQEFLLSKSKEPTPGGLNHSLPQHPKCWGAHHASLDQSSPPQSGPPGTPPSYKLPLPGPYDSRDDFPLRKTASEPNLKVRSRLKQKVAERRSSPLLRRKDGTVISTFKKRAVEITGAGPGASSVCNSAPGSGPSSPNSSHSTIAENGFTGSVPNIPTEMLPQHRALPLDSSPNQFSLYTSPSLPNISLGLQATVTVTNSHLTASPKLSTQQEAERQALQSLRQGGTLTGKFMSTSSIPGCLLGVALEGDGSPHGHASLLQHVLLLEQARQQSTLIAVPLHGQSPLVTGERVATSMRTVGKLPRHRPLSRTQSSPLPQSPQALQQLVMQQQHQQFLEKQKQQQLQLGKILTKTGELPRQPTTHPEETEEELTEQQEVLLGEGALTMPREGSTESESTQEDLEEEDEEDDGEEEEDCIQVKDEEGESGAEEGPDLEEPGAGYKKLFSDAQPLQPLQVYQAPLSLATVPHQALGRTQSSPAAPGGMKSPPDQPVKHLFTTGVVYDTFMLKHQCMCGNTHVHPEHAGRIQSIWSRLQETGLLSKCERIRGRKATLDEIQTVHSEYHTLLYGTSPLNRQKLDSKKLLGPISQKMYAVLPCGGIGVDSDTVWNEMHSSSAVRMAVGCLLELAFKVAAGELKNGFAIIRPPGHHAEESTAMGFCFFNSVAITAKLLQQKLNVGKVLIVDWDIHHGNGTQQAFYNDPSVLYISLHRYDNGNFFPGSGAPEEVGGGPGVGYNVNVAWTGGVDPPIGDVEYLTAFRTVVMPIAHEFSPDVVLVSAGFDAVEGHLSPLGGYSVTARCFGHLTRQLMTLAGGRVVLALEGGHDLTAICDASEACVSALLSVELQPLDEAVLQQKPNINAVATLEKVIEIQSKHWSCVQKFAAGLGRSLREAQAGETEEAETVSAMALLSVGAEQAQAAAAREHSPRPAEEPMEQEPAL

| SMILES | IC50 (Histone deacetylase 3) [µM] | IC50 [1] [µM] | IC50 (Histone deacetylase 8) [µM] | IC50 (Histone deacetylase 11) [µM] | Ki [2] [µM] | efflux ratio at 2 h [4] | IC50 (Histone deacetylase 5) [µM] | IC50 (Histone deacetylase 9) [µM] | IC50 [5] [µM] | IC50 (MV4-11) [µM] | IC50 (MOLM-13) [µM] | IC50 (MDA-MB-231) [µM] | IC50 (MDA-MB-468) [µM] | IC50 [3] [µM] |
| --- | --- | --- | --- | --- | --- | --- | --- | --- | --- | --- | --- | --- | --- | --- |
| CN(CC(=O)N(Cc1ccc(C(C)(C)C)cc1)c1ccc(C(=O)NO)cc1)S(=O)(=O)c1ccc(F)cc1 | 0.492 | 0.0552 | 0.0379 | 0.697 | 0.768 | – | – | – | – | 3.41 | 5.46 | > 25 | > 12.5 | 11.8 |
| C[C@H]1O[C@@H](O[C@H]2[C@@H](O)C[C@H](O[C@H]3[C@@H](O)C[C@H](O[C@H]4CC[C@@]5(C)[C@H](CC[C@@H]6[C@@H]5C[C@@H](O)[C@]5(C)[C@@H](C7=CC(=O)OC7)CC[C@]65O)C4)O[C@@H]3C)O[C@@H]2C)C[C@H](O)[C@@H]1O [DIGOXIN] | – | – | – | – | – | 73 | – | – | – | – | – | – | – | – |
| Cn1cc(CNCC2CCN(c3ncc(C(=O)NO)cn3)CC2)c2ccccc21 [QUISINOSTAT] | – | – | – | – | – | – | 0.00595 | 0.0067 | 0.00196 | – | – | – | – | – |
| CC(C)(C)c1ccc(CNc2ccc(C(=O)NO)cc2)cc1 | 0.503 | 0.11 | > 1 | > 1 | 0.451 | – | – | – | – | 3.49 | 9.47 | > 25 | > 25 | 16.1 |

The next lines start with results.

| IC50 (Histone deacetylase 3) [µM] | IC50 [1] [µM] | IC50 (Histone deacetylase 8) [µM] | IC50 (Histone deacetylase 11) [µM] | Ki [2] [µM] | efflux ratio at 2 h [4] | IC50 (Histone deacetylase 5) [µM] | IC50 (Histone deacetylase 9) [µM] | IC50 [5] [µM] | SMILES | IC50 (MV4-11) [µM] | IC50 (MOLM-13) [µM] | IC50 (MDA-MB-231) [µM] | IC50 (MDA-MB-468) [µM] | IC50 [3] [µM] |
| --- | --- | --- | --- | --- | --- | --- | --- | --- | --- | --- | --- | --- | --- | --- |
| 0.708 | 0.117 | 0.573 | > 1 | 0.793 | – | – | – | – | CN(C(=O)CN(C)S(=O)(=O)c1ccc(F)cc1)c1ccc(C(=O)NO)cc1 | 14.6 | 24.8 | – | – | – |
| 0.213 | 0.0201 | 0.224 | > 1 | 0.573 | – | – | – | – | CN(C(=O)CN(Cc1c(F)c(F)c(F)c(F)c1F)S(=O)(=O)c1ccc(F)cc1)c1ccc(C(=O)NO)cc1 | 3.24 | 14.1 | > 25 | > 25 | > 25 |
